Experimental data from US6844343B1, “N-substituted 4-aminopteridines, synthesis and use thereof as pharmaceutical agent” (Vasopharm Biotech GmbH, priority 1999, dated 2005).

Test system: purified NO synthase from pig cerebellum or from pig liver
Assay: Activity assay of purified NOS (3H-L-arginine to 3H-L-citrulline conversion)
Type: biochemical
Conditions: substance 100 μM, in the presence of 2 μM tetrahydrobiopterin, 15 min at 37° C.
Protocol: The inhibition of the activity of purified nitric oxide synthase (NOS) by compounds of the general formula I can be determined as follows.
In this activity assay the L-citrulline which is a coproduct of the formation of NO by purified NOS is quantitatively measured. ^3H-radiolabeled L-arginine is employed as substrate of the enzyme reaction and is converted into ^3H-L-citrulline and NO. After completion of the enzyme incubation, generated L-citrulline is removed from unused L-arginine by ion exchange chromatography from the reaction mixture; the ^3H activity measured by liquid scintillation then is corresponds to the amount of L-citrulline, which is a direct measure of the activity of NOS.
The basic medium for carrying out the enzyme reaction is TE buffer (triethanolamine, EDTA, pH 7.0).
The final volume of each incubation is 100 μl. The reaction mixture is obtained by mixing the following 6 components on ice: • 1. “REA-Mix” (pH 7.0) which contains triethanolamine, calcium chloride, magnesium chloride, EDTA, L-arginine, calmodulin and flavin adenine dinucleotide (FAD); • 2. freshly prepared stock solution of β-nicotinamide adenine dinucleotide phosphate, reduced form (NADPH); • 3. (6R)-5,6,7,8-tetrahydro-L-biopterin dihydro-chloride stock solution (BH4) or —for experiments without BH4-instead TE buffer; • 4. purified NO synthase from pig cerebellum or from pig liver; • 5.
After mixing of the components on ice, the reaction mixture was immediately incubated in a water bath at 37° C. for 15 minutes. […] After this incubation time, the reaction was stopped by addition of 900 μl of ice-cold “stop buffer” (20 mM sodium acetate, 2 mM EDTA, pH 5.5), and the mixture (total volume now 1.0 ml) was placed on ice. To remove the unreacted ^3H-L-arginine, the mixture was loaded onto an ion exchange column with 0.8 ml of Dowex AG 50 WX-8 (100-200 mesh) which has previously been washed and equilibrated with 2 ml of stop buffer. After loading of the sample, the column was eluted twice with 1 ml of water each time. The flow-through of the sample and the eluate were collected in scintillation vessels and […] (total volume 3 ml). 9 ml of scintillator solution were added to the 3 ml of aqueous measurement solution, and the homogeneous mixture was measured in a Tricarb 2500 TR (Packard) liquid scintillation counter for 1 minute for each sample. […] Each substance was tested for an antagonistic effect in a concentration of 100 μM in the presence of 2 μM tetrahydrobiopterin, and for an agonistic effect on NOS in the absence of tetrahydrobiopterin.
All incubations were carried out on triplicates. Each experiment was repeated three times with different enzyme preparations.

Compound | Remaining activity (% of Vmax)
COc1ccc(-c2cnc3nc(N)nc(N4CCOCC4)c3n2)cc1OC.O.O.O [Example 30, 2-amino-4-(morpholin-4-yl)-6-(3,4-dimethoxy-phenyl)pteridine trihydrate] | 5 ± 3 % of Vmax
CCN(CC)c1nc(N)nc2ncc(-c3ccccc3)nc12.O [Example 15, 2-amino-4-(diethylamino)-6-phenylpteridine hydrate] | 75 ± 3 % of Vmax
COc1ccc(-c2cnc3nc(N)nc(N(C)C)c3n2)cc1 [Example 13, 2-amino-4-(dimethylamino)-6-(4-methoxyphenyl)-pteridine] | 13 ± 4 % of Vmax
CCCN(CCC)c1nc(N)nc2ncc(-c3ccc(OC)cc3)nc12.O [Example 25, 2-amino-4-(di-n-propylamino)-6-(4-methoxyphenyl)-pteridine hydrate] | 25 ± 12 % of Vmax
CCN(CC)c1nc(N)nc2ncc(-c3ccc(OC)c(OC)c3)nc12.O [Example 18, 2-amino-4-(diethylamino)-6-(3,4-dimethoxyphenyl)-pteridine hydrate] | 23 ± 4 % of Vmax
CCN(CC)c1nc(N)nc2ncc(-c3ccc(OC)cc3)nc12.O [Example 17, 2-amino-4-(diethylamino)-6-(4-methoxyphenyl)-pteridine hydrate] | 2 ± 0.1 % of Vmax
CCN(CC)c1nc(N)nc2ncc(-c3ccc(Cl)cc3)nc12.O.O [Example 16, 2-amino-4-(diethylamino)-6-(4-chlorophenyl)-pteridine dihydrate] | 42 ± 10 % of Vmax
Nc1nc(N2CCCCC2)c2nc(-c3ccc(Cl)cc3)cnc2n1.O.O [Example 32, 2-amino-4-(piperidin-1-yl)-6-(4-chlorophenyl)-pteridine dihydrate] | 3 ± 1 % of Vmax
COc1ccc(C2CNc3nc(N)nc(N4CCOCC4)c3N2)cc1OC.Cl.O (stereo not shown) [Example 41, 2-amino-4-(morpholin-4-yl)-6-(3,4-dimethoxy-phenyl)-5,6,7,8-tetrahydropteridine hydrochloride hydrate] | 68 ± 11 % of Vmax
2-amino-4-(morpholin-4-yl)-6-phenyl-5,6,7,8-tetra-hydropteridine dihydrochloride hemihydrate [Example 42] | 51 ± 3 % of Vmax
2-amino-4-(morpholin-4-yl)-6-(4-methoxyphenyl)-5,6,7,8-tetrahydropteridine hydrochloride hemi-hydrate [Example 40] | 66 ± 14 % of Vmax
Nc1nc(N2CCCCC2)c2nc(-c3ccccc3)cnc2n1.O.O [Example 31, 2-amino-4-(piperidin-1-yl)-6-phenylpteridine dihydrate] | 0 ± 0.05 % of Vmax
2-amino-4-(4-methylpiperazin-1-yl)-6-(4-chloro-phenyl)pteridine hemihydrate [Example 36] | 64 ± 9 % of Vmax
CCCN(CCC)c1nc(N)nc2ncc(-c3ccccc3)nc12.O.O.O [Example 23, 2-amino-4-(di-n-propylamino)-6-phenylpteridine trihydrate] | 77 ± 16 % of Vmax
COc1ccc(-c2cnc3nc(N)nc(N4CCCC4)c3n2)cc1.O.O [Example 39, 2-amino-4-(pyrrolidin-1-yl)-6-(4-methoxyphenyl)-pteridine dihydrate] | 30 ± 5 % of Vmax
Cl.Nc1nc(N2CCOCC2)c2nc(-c3ccc(Cl)cc3)cnc2n1.O [Example 28, 2-amino-4-(morpholin-4-yl)-6-(4-chlorophenyl)-pteridine hydrochloride hydrate] | 3 ± 1.5 % of Vmax
Cc1ccc(-c2cnc3nc(N)nc(N(C)C)c3n2)cc1 [Example 12, 2-amino-4-(dimethylamino)-6-(4-methylphenyl)-pteridine] | 15 ± 7 % of Vmax
Nc1nc(N2CCOCC2)c2nc(-c3ccccc3)cnc2n1.O [Example 27, 2-amino-4-(morpholin-4-yl)-6-phenylpteridine hydrate] | 41 ± 8 % of Vmax
2-amino-4-(4-methylpiperazin-1-yl)-6-phenyl-pteridine hemihydrate [Example 35] | 83 ± 1 % of Vmax
Cl.Cl.Cl.Nc1nc2c(c(N3CCCCC3)n1)NC(c1ccc(Cl)cc1)CN2.O (stereo not shown) [Example 43, 2-amino-4-(piperidin-1-yl)-6-(4-chlorophenyl)-5,6,7,8-tetrahydropteridine trihydrochloride hydrate] | 0 % of Vmax
CCCN(CCC)c1nc(N)nc2ncc(-c3ccc(Cl)cc3)nc12.O.O.O [Example 24, 2-amino-4-(di-n-propylamino)-6-(4-chlorophenyl)-pteridine trihydrate] | 7 ± 4 % of Vmax
Nc1nc(N(Cc2ccccc2)Cc2ccccc2)c2nc(-c3ccccc3)cnc2n1.O.O [Example 19, 2-amino-4-(dibenzylamino)-6-phenylpteridine dihydrate] | 0 ± 0.05 % of Vmax
2-amino-4-(4-methylpiperazin-1-yl)-6-(4-methoxy-phenyl)pteridine hemihydrate [Example 37] | 84 ± 5 % of Vmax
CN(C)c1nc(N)nc2ncc(-c3ccccc3)nc12 [Example 11, 2-amino-4-(dimethylamino)-6-phenylpteridine] | 92 ± 11 % of Vmax
COc1ccc(-c2cnc3nc(N)nc(N4CCN(C)CC4)c3n2)cc1OC.O.O [Example 38, 2-amino-4-(4-methylpiperazin-1-yl)-6-(3,4-di-methoxyphenyl)pteridine dihydrate] | 99 ± 16 % of Vmax
CCCN(CCC)c1nc(N)nc2ncc(-c3ccc(OC)c(OC)c3)nc12.O [Example 26, 2-amino-4-(di-n-propylamino)-6-(3,4-dimethoxy-phenyl)pteridine hydrate] | 0 % of Vmax

Test system: NO synthase
Assay: not given
Conditions: literature reports on BH4 analogues; cited from earlier work

Compound | effect on NO production / NO synthase
C[C@@H](O)[C@@H](O)[C@H]1CNc2nc(N)[nH]c(=O)c2N1 [Example 6S-BH4, 6S-BH4] | able to partly replace the natural cofactor
CC1Nc2nc(N)[nH]c(=O)c2NC1C (stereo not shown) [6,7-dimethyl-5,6,7,8-tetrahydropterin] | no significant effects
CC(O)C(O)C1CNc2c(nc(N)[nH]c2=O)N1 (stereo not shown) [7-R/S-BH4] | able to partly replace the natural cofactor
Nc1nc2ncc([C@H](O)[C@H](O)CO)nc2c(=O)[nH]1 [neopterin] | no significant effects
Nc1nc(=O)c2[nH]c(=O)cnc2[nH]1 [xanthopterin] | no significant effects
Nc1nc2c(c(=O)[nH]1)N=C(CNc1ccc(C(=O)N[C@@H](CCC(=O)O)C(=O)O)cc1)CN2 [dihydrofolic acid] | no significant effects
Nc1nc2c(c(=O)[nH]1)NC(C(O)C(O)CO)CN2 (stereo not shown) [tetrahydro-neopterin] | no significant effects
C[C@H](O)[C@H](O)C1=Nc2c(nc(N)[nH]c2=O)NC1 [dihydrobiopterin] | able to partly replace the natural cofactor
CN(Cc1cnc2nc(N)nc(N)c2n1)c1ccc(C(=O)N[C@@H](CCC(=O)O)C(=O)O)cc1 [methotrexate] | no significant effects
Nc1nc2nccnc2c(=O)[nH]1 [pterin] | no significant effects
Nc1nc2ncc(CNc3ccc(C(=O)N[C@@H](CCC(=O)O)C(=O)O)cc3)nc2c(=O)[nH]1 [folic acid] | no significant effects
Biopterin | no significant effects
CC1CNc2nc(N)[nH]c(=O)c2N1 (stereo not shown) [6-methyl-5,6,7,8-tetrahydropterin] | able to partly replace the natural cofactor
CC1CNc2nc(N)[nH]c(=O)c2C1 (stereo not shown) [5-deaza-6-methyl-5,6,7,8-tetrahydropterin] | weak inhibition
Nc1nc2c(c(=O)[nH]1)N=C([C@H](O)[C@H](O)CO)CN2 [dihydroneopterin] | no significant effects
Nc1nc2c(c(=O)[nH]1)NC(CNc1ccc(C(=O)N[C@@H](CCC(=O)O)C(=O)O)cc1)CN2 (stereo partly shown) [tetrahydrofolic acid] | no significant effects
Nc1nc2[nH]c(=O)cnc2c(=O)[nH]1 [isoxanthopterin] | no significant effects
